Patent US20220347085A1, “REPELLENT COMPOSITION AND USES” (Université Bourgogne, priority 2019, published 2022)

Legend:
Type in all cases: in vivo
Drosophila suzukii [1] = experiment: Anesthesia test, Drosophila suzukii; conditions: 2% in paraffin oil
Protocol: (§1) The devices used were similar to the devices for studying the courtship (example 1 above), except for the volume of the space into which the files were introduced, which was 45.24 or 22.62 cm^3. 9 discs of filter paper (Whatman, filter paper 42), each soaked in 10 μl of a composition comprising butyric acid and/or propionic acid and/or a derivative of propionic acid diluted in paraffin oil were deposited in the device. The different compositions used comprised, respectively, 2% propionic acid or 2% butyric acid or 5% ethyl propanoate or 10% ethyl propanoate or 30% ethyl propanoate. For each composition, the number of flies was, respectively, 30 and 24 males, 30 and 11 females for Drosophila melanogaster, and 24, 16 and 4 males, 28, 26, 6, 5 and 4 females for Drosophila suzukii. In order to avoid any contact of the flies with the soaked disks of paper, a gauze (netting) was arranged above said papers. The drosophilae could move freely on said gauze. The quantity of compound, butyric acid or propionic acid, or of ethyl propanoate (odor) volatilized in the behavior chamber was equivalent to that of the device used for the courtship. Likewise, the flies were never in direct contact with the composition (no taste perception), only with the volatile particles (olfactory perception). The flies tested were introduced simultaneously, by group, into the enclosure. Their behavior was filed for 10 minutes, and a time required for leading to anesthesia was calculated over this period, depending on the concentration of butyric acid or propionic acid or ethyl propanoate used. The flies were considered anesthetized when they stopped moving and fell on their side.

Drosophila melanogaster [2] = experiment: Anesthesia test, Drosophila melanogaster; conditions: 2% in paraffin oil
Protocol: as §1

Drosophila melanogaster [3] = experiment: Courtship of male Drosophila melanogaster towards females, olfactory exposure
Protocol: 1.1. Drosophila melanogaster
Drosophilae (Drosophila melanogaster) aged from 3 to 9 days are used for the courtship tests as described Grosjean et al. Nat. Neurosci. 2008 [1] and Grosjean et al. Nature 2011 [2].
Naive males were isolated in tubes, individually, upon emerging from their puparium. The females were selected to be virgin and were stored in tubes of 10 individuals. These tubes were placed in incubators, for which a temperature of 25° C. was kept constant. A 12 hour/12 hour day/night cycle was applied. The courtship tests were carried out in the morning, between 1 and 3 hours after the start of the day cycle.
These tests were conducted in devices made up of 6 cylindrical, transparent, and closed alveolae (see FIG. 15) of a volume of […]. A disk of filter paper (Whatman, filter paper 42) of 6 mm in diameter is deposited on the base thereof. Said paper is soaked in 10 μl of a composition comprising propionic acid and/or butyric acid diluted in paraffin oil (solvent). The different compositions used comprised, respectively, 0.5% or 1% propionic acid, 0.5% or 1% butyric acid. For each concentration, the number of pairs of flies tested was, respectively, 23, 23, 19 and 19. At the time of the test, 1 pair per alveolus was introduced into the behavior device (i.e. 6 pairs). Said pair was made up of one male and one female, each originating from the tubes mentioned above. The drosophilae were physically isolated from the odor source (said paper) by a netting which prevents any direct contact, the female had been decapitated but remained alive. In addition, the device was illuminated by red light (red far from the wavelength of between 625 and 630 nm) so as to eliminate any behavior associated with the visual perception which, in D. melanogaster, is between 300 and 550 nm)). Thus, the behavior observed depends only on the olfactory perception by the male of the compound introduced into the device at the time of the assembly thereof.
The behavior was filmed for 10 minutes, using a Sony HDR-XR550 camera. Each film was recorded and kept for subsequent analysis.
A proportion of courtship, expressed as a percentage, was then calculated, and represents the time during which the male courts the female during the 10 minutes of recording the test. The courtship of the Drosophila melanogaster is decomposed into recognizable stereotypical events, and described precisely in scientific literature (Greenspan & Ferveur, Annu. Rev. Genet, 2000 [3]). A statistical test (Mann-Whitney test (nonparametric test, GraphPad, Prism8)) was carried out in order to evaluate the influence, on the behavior, of the composition in which the paper is soaked; this involving a release of volatile compounds and an odor perceived by the drosophilae. […]

Drosophila suzukii [4] = experiment: Courtship of male Drosophila suzukii towards females, olfactory exposure; conditions: compared with solvent alone, 10 min observation
Protocol: Drosophilae (Drosophila melanogaster) aged from 3 to 9 days are used for the courtship tests according to the method described above.
Naive males were isolated in tubes, individually, upon emerging from their puparium.
The females were selected to be virgin and were stored in tubes of 10 individuals. These tubes were placed in an inclined manner in incubators, for which a temperature of 25° C. was kept constant. A 12 hour-12 hour day/night cycle was applied. The courtship tests were carried out in the morning, between 1 and 3 hours after the start of the day cycle.
At the time of the test, a 6 mm disk of filter paper (Whatman, filter paper 42) was deposited per alveolus of the device for studying the courtship behavior. Each alveolus was cylindrical, transparent and closed, and of a volume of 1.52 or 0.9 cm^3. FIG. 16 is a schematic representation of an alveolus of the device used.
The paper was then soaked in 10 μl of a composition of 0.1%, 0.5% or 1% propionic acid, or 0.1%, 0.5% or 1% butyric acid, or a mixture comprising 0.1% propionic acid and 0.1% butyric acid, 0.25% propionic acid and 0.25% butyric acid or 0.5% propionic acid and 0.5% butyric acid. A gauze (netting) makes it possible to physically isolate the drosophilae from the odor. 6 pairs (one per alveolus) were observed independently. Each pair was made up of one male and one intact female, each originating from the tubes mentioned above.
The behavior was filmed for 10 minutes, under white light, using a Sony HDR-XR550 camera. Each film was recorded and then analyzed. For each concentration of the compositions used, the number of pairs of flies was, respectively, 33, 39, 27, 38, 33, 27, 12, 6 and 12.
A negative control was carried out comprising only the solvent, i.e. paraffin oil, in order to verify the absence of an effect of the solvent on the flies.
A courtship percentage was calculated, and represents the time during which the male courts the female during the 10 minutes of observation (recording). The courtship of the Drosophila suzukii is decomposed into recognizable stereotypical events, and described precisely in scientific literature (Revadi S et al., Insects 2015 [4]). Statistical tests, i.e. a Kruskal-Wallis test followed by a post-hoc Dunn's Multiple Comparison Test, were carried out (GraphFad, Prism6) in order to evaluate the influence, on the behavior, of the composition in which the paper is soaked; this involving a release of volatile compounds and an odor perceived by the drosophilae.

[5] = 1% in paraffin oil, compared with solvent alone, red light, decapitated female

| SMILES | time elapsed leading to anesthesia (Drosophila suzukii [1]; female flies (FIG. 17)) | time elapsed leading to anesthesia (Drosophila suzukii [1]; male flies and female flies) | time elapsed leading to anesthesia (Drosophila melanogaster [2]; female flies) | time elapsed leading to anesthesia (Drosophila melanogaster [2]; male flies) | proportion of courtship of males towards females (Drosophila melanogaster [3]; 0.5% in paraffin oil, compared with solvent alone) | proportion of courtship of males towards females (Drosophila melanogaster [3]; [5]) | proportion of courtship of males towards females (Drosophila suzukii [4]; 0.5% (v/v) in paraffin oil) | proportion of courtship of males towards females (Drosophila suzukii [4]; 1% (v/v) in paraffin oil) | proportion of courtship of males towards females (Drosophila melanogaster [3]; 1% in solvent, compared with 0.5% in solvent) |
| --- | --- | --- | --- | --- | --- | --- | --- | --- | --- |
| CCCC(=O)O [butyric acid] | approximately 5 minutes | approximately 5 minutes | approximately 17 minutes | approximately 5 minutes | significantly reduced | significantly reduced | significantly reduced | significantly reduced | – |
| CCC(=O)O [propionic acid] | approximately 4 minutes | approximately 4 minutes | approximately 5 minutes | approximately 3 minutes | – | significantly changed | significantly reduced | significantly reduced | significantly reduced |
